Measured values: patent publication US11572296B1, “Method for extending time of activity of chlorite-based biocides” (priority 2020, dated 2023)

Assays:
bacteria [1] = settings: properties of oxychloro species; cited from earlier work
bacteria [2] = assay: Antimicrobial activity of oxychloro species (general properties); settings: treated water, component of the formulation
From the text: The potency and longevity of biocidal activity for this formulation is controlled by varying the ratios of chlorate and acid which provide different profiles of the antimicrobial activities.

Row | Molecule | Biocidal potency (bacteria [1]) | time range of antimicrobial impact / longevity (bacteria [2])
1 | [O-][Cl+2]([O-])O [ClO3^−, Chlorate ion] | low | –
2 | [Na+].[O-][Cl+2]([O-])[O-] [sodium chlorate] | – | weeks to months
3 | Chlorine dioxide [ClO2] | – | within seconds
4 | sodium chlorite | – | hours to days
